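Exposure lasted 48 hours, with cells grown in 96-well plates and compounds tested at five concentrations. TGI: concentration producing complete growth inhibition.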
What was measured:
Assay in all cases: NCI tumour cell line growth inhibition, 48 h
[1] = system: DLD-1 colon
[2] = system: DMS 114 small cell lung
[3] = system: HOP-18 NSCLC
[4] = system: KM20L2 colon
[5] = system: LXFL 529 NSCLC
[6] = system: MDA-N
[7] = system: RXF-631 renal
[8] = system: SN12K1 renal
[9] = system: SNB-78 CNS
[10] = system: XF 498 CNS

Structure (SMILES) | TGI [1] | TGI [2] | TGI [3] | TGI [4] | TGI [5] | TGI [6] | TGI [7] | TGI [8] | TGI [9] | TGI [10]
c1ccc(CN2CCc3[nH]c4ccccc4c3C2)cc1 | > 100 µM | 47.3 µM | > 100 µM | 26.3 µM | 48.6 µM | 44 µM | 38.5 µM | 29.1 µM | > 100 µM | 68.6 µM
NC(=S)N=Nc1c(O)[nH]c2c(Cl)cc(Cl)cc12 |  |  |  |  |  | 35.1 µM |  |  |  | 
O=C1CC(c2c(-c3ccccc3)[nH]c3ccccc23)C(=O)N1c1ccccc1 (centres undefined) | > 100 µM | > 100 µM |  | > 100 µM | > 100 µM |  | > 100 µM |  | > 100 µM | > 100 µM
C=C1C(=O)OC2C1C(OC(=O)/C(C)=C/C)CC(O)(CCl)C1C(O)C=C(C)C21O (centres undefined) |  |  |  |  |  | 37.3 µM |  |  |  | 
Cc1cc(N(CCC#N)CCC#N)ccc1N=Nc1cc(Cl)ccc1Cl | 26.1 µM | 22.9 µM | 22.1 µM |  | 3.35 µM |  |  |  | 22 µM | 
CCOC(=O)C1C=C2O[C@@H]3OC4(CCCCC4)O[C@@H]3C2C2C(=O)CCC(=O)[C@@]12C(=O)OC (some centres undefined) | > 100 µM | > 100 µM | > 100 µM | > 100 µM | > 100 µM |  | > 100 µM |  | > 100 µM | > 100 µM
O=C1/C(=C/c2ccc3c(c2)OCCO3)CCC/C1=C\c1ccc2c(c1)OCCO2 | 48.4 µM |  | 80.2 µM | 37.5 µM | > 100 µM |  |  |  | > 100 µM | 
COC(=O)c1cccc2c3ccccc3c3ccccc3c12 | > 100 µM | 94.7 µM | > 100 µM | > 100 µM | 85.2 µM |  |  |  |  | 
CC1(C)CCCC2(C)C3C(O)CC2(C)C(O)C31 (centres undefined) | > 100 µM | > 100 µM | > 100 µM | > 100 µM | > 100 µM |  |  |  | > 100 µM | > 100 µM
O=C(O)C1CC=CCC1C(=O)Nc1cccc(O)c1 (centres undefined) |  |  |  |  |  | > 100 µM |  |  |  | 
Cc1cccc(C)c1NC(=O)CCC/C(CC(=O)c1ccc(F)cc1)=N\NC(=O)C(=O)NN | > 100 µM | > 100 µM | > 100 µM | > 100 µM | > 100 µM |  | > 100 µM |  | > 100 µM | > 100 µM
C1OC1CN1CCN(CC2CO2)CC1 (centres undefined) | > 100 µM | > 100 µM | > 100 µM | > 100 µM | > 100 µM |  |  |  | > 100 µM | > 100 µM
Cn1c(=O)nc2n(-c3ccc(Cl)cc3)c(-c3ccccc3)c(-c3ccccc3)nc-2c1=O | > 100 µM | > 100 µM | > 100 µM | > 100 µM | > 100 µM |  | > 100 µM |  | > 100 µM | 42.2 µM
CC1=CC(C)(c2c[nH]c3ccccc23)CC(C)(C)c2c1[nH]c1ccccc21 (centres undefined) | 27.2 µM | 36.5 µM | > 100 µM | 31.4 µM | > 100 µM |  | 31.8 µM |  | > 100 µM | 72.1 µM
N#Cc1c(-c2ccccc2)cc(-c2ccc(N)cc2)[nH]c1=O | > 100 µM | > 100 µM | > 100 µM | > 100 µM | > 100 µM |  | > 100 µM |  | > 100 µM | 
CCc1cccc(C(C)C)c1NC(=O)CCl | > 100 µM |  |  | > 100 µM | > 100 µM |  | 37.4 µM |  | > 100 µM | > 100 µM
C=CC(COC(=O)C(C)(C)OC(C)=O)c1ccc(OC(=O)C(C)C)c(OC)c1 (centres undefined) |  |  |  |  |  | 14 µM |  |  |  | 
CCCCC(C)/C=C/C(=O)C1=C(O)/C(=C/C(=O)O)OC1=O (centres undefined) |  | > 100 µM | > 100 µM | > 100 µM | > 100 µM |  | > 100 µM |  | > 100 µM | > 100 µM
Nc1ccc(-c2cc(C(=O)Nc3nccs3)[nH]c(=S)n2)cc1 | > 100 µM | > 100 µM | > 100 µM | > 100 µM | > 100 µM |  |  |  | > 100 µM | > 100 µM
